Measurements as given in patent US11865158B2, “Process and composition matter of nanoparticle formulation for systemic treatment of sepsis” (PURDUE RESEARCH FOUNDATION, priority 2019, dated 2024).
≈ marks a conversion by molar mass, not a printed value.

Columns and labels:
Experiment in all cases: Minimum inhibitory concentration, broth microdilution
Format in all cases: cell-based
[1] = test system: Escherichia coli ATCC 2469
Source text: (§1) Bacterial cell lines and reagents. Escherichia coli ATCC 2452 (NDM-1, isolated in Pakistan) was New Delhi metallo-beta-lactamase (NDM-1) positive, blaNDM positive by PCR, and carbepenem-resistant (Imipenem and Ertapenem). Escherichia coli ATCC 2469 (1001728, isolated from human urine) was New Delhi metallo-beta-lactamase (NDM-1) positive, blaKPC negative and blaNDM positive by PCR, and Carbepenem-resistant (Imipenem and Ertapenem). Klebsiella pneumoniae (NR-41920, isolated in 2008 from human blood culture in Boston, Massachusetts, USA) was Carbapenem-resistant strain, blaKPC-3 positive by PCR, and resistant to amikacin, ampicillin/sulbactam, cefazolin, cefepime, ceftazidime, ceftriaxone, cefuroxime, ciprofloxacin, gentamicin, meropenem, piperacillin/tazobactam, tobramicin and trimethoprim/sulfamethoxazole. Pseudomonas aeruginosa (NR-50573, isolated in early 1970s from the blood of a burn patient at Mercy Hospital in Pittsburgh, Pennsylvania, USA) was resistant to rifampicin and susceptible to meropenem, ofloxacin, ceftazidime, amikacin, and tobramycin. 0.5 McFarland standard was purchased from ThermoFisher scientific (Waltham, MA, USA). Mueller-Hinton broth and tryptone soy agar plates were purchased from Becton, Dickinson and company (Franklin Lakes, New Jersey, USA).
(§2) Antimicrobial activities The minimum inhibitory concentrations (MICs) of the control antibiotics (gentamicin and imipenem), PMB, D-TZP and TZP against Escherichia coli, Klebsiella pneumoniae and Pseudomonas aeruginosa strains were determined by the broth microdilution method, according to guidelines outlined by the Clinical and Laboratory Standards Institute (CLSI)^18. The bacterial stains were grown aerobically overnight on tryptone soy agar plates at 37° C. Afterwards, a bacterial solution equivalent to 0.5 McFarland standard was prepared and diluted in cation-adjusted Mueller-Hinton broth (CAMHB) to achieve a bacterial concentration of ˜5×10^5 CFU/mL. The treatments were added in the first row of the 96-well plates and serially diluted with media containing bacteria. Plates were incubated aerobically at 37° C. for 16-18 hours.

[2] = test system: Escherichia coli ATCC 2452
Source text: as §1, §2

[3] = test system: Klebsiella pneumoniae NR-41920
Source text: as §1, §2

[4] = test system: Pseudomonas aeruginosa NR-50573
Source text: as §1, §2

| Molecule | MIC ([1]; ATCC2469) [µg/mL] | MIC ([2]; ATCC2452) [µg/mL] | MIC ([3]; NR41920) [µg/mL] | MIC ([4]; NR50573) [µg/mL] | Minimum inhibitory concentration (MIC) [1] [µg/mL] | Minimum inhibitory concentration (MIC) [2] [µg/mL] | Minimum inhibitory concentration (MIC) [3] [µg/mL] | Minimum inhibitory concentration (MIC) [4] [µg/mL] |
| --- | --- | --- | --- | --- | --- | --- | --- | --- |
| C[C@@H](O)[C@H]1C(=O)N2C(C(=O)O)=C(SCCN=CN)C[C@H]12 [Imipenem, imipenem] | 16 (≈ 53.4 µM) | 16 (≈ 53.4 µM) | 8 (≈ 26.7 µM) | 1 (≈ 3.34 µM) |  |  |  |  |
| gentamicin |  |  |  |  | >64 | >64 | 64 | 1 |
